Like-named read-outs stand apart in the source and are kept apart here.
Assays:
[1] = test system: Mite; conditions: mite on okra plants, green house, dose 1 ml/gm/lit. spray; for % Mortality at 48 Hrs.: 48 hrs after application; for % Corrected Mortality at 48 Hrs.: corrected for water control
[2] = test system: Thrips; experiment: whole plant or invertebrate; conditions: in Gossypium hirsutum, 48 h
[3] = test system: Mite; conditions: Dose 1 ml/gm/lit.; 48 hrs
[4] = test system: Mealy Bug; conditions: mealy bug on cotton plants, green house, dose 1 ml/gm/lit. spray; for % Mortality at 48 Hrs.: 48 hrs after application; for % Corrected Mortality at 48 Hrs.: corrected for water control
[5] = test system: Mealy Bug; conditions: Mealy Bug on cotton leaves, dose 1 ml/gm/lit., 48 Hrs.; for % Corrected Mortality at 48 Hrs.: corrected for water control
[6] = test system: Helicoverpa armigera; conditions: Helicoverpa armigera on okra fruits, dose 1 ml/gm/lit., 72 Hrs.; for % Corrected Mortality at 72 Hrs.: corrected for water control
[7] = test system: Thrips; conditions: 48 h, 1 mL or g/L
[8] = test system: Aphid; experiment: whole plant or invertebrate; conditions: 48 h
[9] = test system: chili seedlings; experiment: Response of chili plants, greenhouse growth (Ex. 31); type: in vivo; conditions: for CCI 5th Day / Plant Height (cm) 5th Day: 120 h; for CCI 10th Day / Plant Height (cm) 10th Day / Root Lenght % Increase over control: 240 h; for CCI % Increase over pre on 10th Day / Plant Height % Increase over pre on 10th Day / Root Lenght (cm) 10th Day / Stem Girth % Increase over pre on 10th Day: chili seedlings, dose 1 ml/gm/lit
[10] = cited from earlier work; for Phytotonic Effect: Table 13, effect on plants, descriptive
[11] = test system: Alternaria alternata; experiment: In vitro poisoned food technique against fungus (Ex. 20); type: cell-based; conditions: […]
[12] = test system: Spodoptera litura; experiment: whole plant or invertebrate; conditions: 72 h
[13] = test system: Aphid; conditions: 48 h, 1 mL or g/L
[14] = test system: Spodoptera litura; conditions: Spodoptera litura 3rd instar on cabbage plants, dose 1 ml/gm/lit. spray; for % Mortality at 72 Hrs.: 72 hrs after application; for % Corrected Mortality at 72 Hrs.: corrected for water control
[15] = test system: Aphid; conditions: for % Corrected Mortality at 48 Hrs. / % Mortality at 48 Hrs.: Dose 1 ml/gm/lit.
[16] = test system: Thrips; conditions: for % Mortality at 48 Hrs. / % Corrected Mortality at 48 Hrs.: thrips on cotton plants, greenhouse, dose 1 ml/gm/lit. spray; for % Mortality at 48 Hrs.: 48 hrs after application; for % Corrected Mortality at 48 Hrs.: corrected for water control
[17] = test system: Helicoverpa armigera; conditions: Helicoverpa armigera 3rd instar on chickpea plants, dose 1 ml/gm/lit. spray; for % Mortality at 72 Hrs.: 72 hrs after application; for % Corrected Mortality at 72 Hrs.: corrected for water control
[18] = test system: Spodoptera litura; conditions: 72 h, 1 mL or g/L
[19] = test system: tomato seedlings; experiment: Response of tomato plants, greenhouse growth (Ex. 30); type: in vivo; conditions: for CCI 5th Day / Plant Height 5th Day / Stem Girth 5th Day: 120 h; for CCI 10th Day / Plant Height 10th Day / Root Length % Increase over control / Stem Girth 10th Day: 240 h; for Plant Height % Increase over pre on 10th Day / Stem Girth % Increase over pre on 10th Day / CCI % Increase over pre on 10th Day / Root Length (cm) 10th Day: tomato seedlings, dose 1 ml/gm/lit
[20] = test system: Citrus Canker (Xanthomonas citri pv. Citri); experiment: Field trial, citrus canker (Ex. 117); conditions: dose 0.25%
[21] = read-out: % Corrected Mortality at 48 Hrs.
[22] = read-out: % Mortality at 48 Hrs.
[23] = read-out: % Corrected Mortality at 72 Hrs.
[24] = read-out: % Mortality at 72 Hrs.
[25] = Table 13, descriptive, no test described

For `C=C1C2CCC(C2)C1(C)C` (stereo not drawn) [Camphene, camphene], the “% Mortality at 48 Hrs.” value [1] was 40.00%, the “% Corrected Mortality at 48 Hrs.” value [1] was 36.84% and the mortality at 1 mL or g/L [2, 21] was 45.7%. For the same compound, the mortality at 1 mL or g/L [2, 22] was 52.5%, the “% Corrected Mortality at 48 Hrs.” value [3] was 35.14% and the “% Mortality at 48 Hrs.” value [3] was 40.00%. The “% Mortality at 48 Hrs.” value [4] was 52.50%, the “% Corrected Mortality at 48 Hrs.” value [4] was 47.22% and the “% Mortality at 48 Hrs.” value [5] was 45.00%. For the same compound, the “% Corrected Mortality at 48 Hrs.” value [5] was 42.11%, the “% Mortality at 72 Hrs.” value [6] was 62.50% and the “% Corrected Mortality at 72 Hrs.” value [6] was 62.50%. For the same compound, the “Total No. of dead insect at 48 Hrs.” value [7] was 5.25, the mortality at 1 mL or g/L [8, 21] was 41.2% and the mortality at 1 mL or g/L [8, 22] was 50%. The “CCI Pre” value [9] was 9.35, the “Plant Height (cm) Pre” value [9] was 3.94 cm and the “CCI 5th Day” value [9] was 10.40. The “Plant Height (cm) 5th Day” value [9] was 5.97 cm, the “CCI 10th Day” value [9] was 12.02 and the “Plant Height (cm) 10th Day” value [9] was 6.21 cm. For the same compound, the “Root Lenght % Increase over control” value [9] was 27.80%, the “CCI % Increase over pre on 10th Day” value [9] was 28.56% and the “Plant Height % Increase over pre on 10th Day” value (from here on “Plant Height % Increase”) [9] was 57.61%. The “Root Lenght (cm) 10th Day” value [9] was 3.50 cm, the “Stem Girth % Increase over pre on 10th Day” value (“Stem Girth % Increase” below) [9] was 43.80% and the “Phytotonic Effect” value [10] was “Trigger the nutrition”. It also gave an inhibition of growth at 1 mL or g/L [11] of 18.8%, a mortality at 1 mL or g/L [12, 23] of 65.8% and a mortality at 1 mL or g/L [12, 24] of 67.5%. For the same compound, the “Total No. of dead insect at 48 Hrs.” value [13] was 50.00, the “% Mortality at 72 Hrs.” value [14] was 65.00% and the “% Corrected Mortality at 72 Hrs.” value [14] was 63.16%. For the same compound, the “Total No. of dead insect at 48 Hrs.” value [15] was 5.25, the “% Corrected Mortality at 48 Hrs.” value [15] was 45.71% and the “% Mortality at 48 Hrs.” value [15] was 52.50%. For the same compound, the “Total No. of dead insect at 48 Hrs.” value [16] was 50.00, the “% Mortality at 48 Hrs.” value [16] was 50.00% and the “% Corrected Mortality at 48 Hrs.” value [16] was 44.44%. The “% Mortality at 72 Hrs.” value [17] was 60.00%, the “% Corrected Mortality at 72 Hrs.” value [17] was 60.00% and the “Total No. of dead insect at 72 Hrs.” value [18] was 6.75. For the same compound, the “CCI Pre” value [19] was 11.85, the “Plant Height Pre” value [19] was 5.75 cm and the “Stem Girth Pre” value [19] was 1.29 mm. For the same compound, the “CCI 5th Day” value [19] was 13.99, the “Plant Height 5th Day” value [19] was 6.82 cm and the “Stem Girth 5th Day” value [19] was 1.49 mm. For the same compound, the “CCI 10th Day” value [19] was 14.95, the “Plant Height 10th Day” value [19] was 7.34 cm and the “Root Length % Increase over control” value [19] was 14.19%. For the same compound, the “Stem Girth 10th Day” value [19] was 2.07 mm, the “Plant Height % Increase” value [19] was 27.65% and the “Stem Girth % Increase” value [19] was 60.47%. The “CCI % Increase over pre on 10th Day” value [19] was 26.16% and the “Root Length (cm) 10th Day” value [19] was 3.80 cm.
With `CCCCC[C@H](O)CC(=O)CCc1ccc(O)c(OC)c1` [Gingerol] the “% Mortality at 48 Hrs.” value [1] was 30.00%, the “% Corrected Mortality at 48 Hrs.” value [1] was 26.32% and the mortality at 1 mL or g/L [2, 21] was 28.6%. The mortality at 1 mL or g/L [2, 22] was 37.5%, the “% Corrected Mortality at 48 Hrs.” value [3] was 29.73% and the “% Mortality at 48 Hrs.” value [3] was 35.00%. The “% Mortality at 48 Hrs.” value [4] was 37.50%, the “% Corrected Mortality at 48 Hrs.” value [4] was 30.56% and the “% Mortality at 48 Hrs.” value [5] was 27.50%. The “% Corrected Mortality at 48 Hrs.” value [5] was 23.68%, the “% Mortality at 72 Hrs.” value [6] was 52.50% and the “% Corrected Mortality at 72 Hrs.” value [6] was 52.50%. The “Total No. of dead insect at 48 Hrs.” value [7] was 3.75, the mortality at 1 mL or g/L [8, 21] was 58.8% and the mortality at 1 mL or g/L [8, 22] was 65%. For the same compound, the “CCI Pre” value [9] was 9.40, the “Plant Height (cm) Pre” value [9] was 4.05 cm and the “CCI 5th Day” value [9] was 13.02. The “Plant Height (cm) 5th Day” value [9] was 5.95 cm, the “CCI 10th Day” value [9] was 16 and the “Plant Height (cm) 10th Day” value [9] was 6.65 cm. The “Root Lenght % Increase over control” value [9] was 37.61%, the “CCI % Increase over pre on 10th Day” value [9] was 70.21% and the “Plant Height % Increase” value [9] was 64.20%. For the same compound, the “Root Lenght (cm) 10th Day” value [9] was 3.77 cm, the “Stem Girth % Increase” value [9] was 45.00% and the “Antifungal Activity - Mode of action” value [10, 25] was “More effective in restricting”. For the same compound, the “Antioxidant Activity - Mode of action” value [10, 25] was “High antioxidant activity”, the “Bactericidal Activity - Mode of action” value [10, 25] was “Antibacterial activity” and the “Insecticidal Activities - Mode of action” value [10, 25] was “Exhibit repellent activity”. For the same compound, the “Nematicidal Activity - Mode of action” value [10, 25] was “Suppressed root knot egg”, the “Virucidal Activity - Mode of action” value [10, 25] was “Inhibit viral nucleic” and the “Phytotonic Effect” value [10] was “Enhanced plant”. It also gave an inhibition of growth at 1 mL or g/L [11] of 51.7%, a mortality at 1 mL or g/L [12, 23] of 36.8% and a mortality at 1 mL or g/L [12, 24] of 40%. The “Total No. of dead insect at 48 Hrs.” value [13] was 65.00, the “% Mortality at 72 Hrs.” value [14] was 37.50% and the “% Corrected Mortality at 72 Hrs.” value [14] was 34.21%. The “Total No. of dead insect at 48 Hrs.” value [15] was 6.25, the “% Corrected Mortality at 48 Hrs.” value [15] was 57.14% and the “% Mortality at 48 Hrs.” value [15] was 62.50%. The “Total No. of dead insect at 48 Hrs.” value [16] was 30.00, the “% Mortality at 48 Hrs.” value [16] was 30.00% and the “% Corrected Mortality at 48 Hrs.” value [16] was 22.22%. The “% Mortality at 72 Hrs.” value [17] was 50.00%, the “% Corrected Mortality at 72 Hrs.” value [17] was 50.00% and the “Total No. of dead insect at 72 Hrs.” value [18] was 4.00. The “CCI Pre” value [19] was 12.65, the “Plant Height Pre” value [19] was 5.62 cm and the “Stem Girth Pre” value [19] was 1.35 mm. The “CCI 5th Day” value [19] was 14.63, the “Plant Height 5th Day” value [19] was 6.45 cm and the “Stem Girth 5th Day” value [19] was 1.92 mm. The “CCI 10th Day” value [19] was 16.87, the “Plant Height 10th Day” value [19] was 7.59 cm and the “Root Length % Increase over control” value [19] was 31.77%. For the same compound, the “Stem Girth 10th Day” value [19] was 2.31 mm, the “Plant Height % Increase” value [19] was 35.05% and the “Stem Girth % Increase” value [19] was 70.52%. The “CCI % Increase over pre on 10th Day” value [19] was 33.36% and the “Root Length (cm) 10th Day” value [19] was 4.38 cm.
For Copper, the “% Disease reduction over Control” value [20] was 71.15%, the “Citrus Canker severity, 1st spray 5rd Day” value ([20]; 1st spray, 5rd Day) was 39.56 and the “Citrus Canker severity, 1st spray 10th day” value ([20]; 1st spray, 10th day) was 34.15. For the same compound, the “Citrus Canker severity, 2nd spray 5rd day” value ([20]; 2nd spray, 5rd day) was 29.65, the “Citrus Canker severity, 2nd spray 10th Day” value ([20]; 2nd spray, 10th Day) was 23.65 and the “% Increase in yield over control” value ([20]; citrus) was 13.04%. For the same compound, the “Yield (t/ha)” value ([20]; citrus) was 9.20 t/ha and the “Citrus Canker severity, Pre spray” value ([20]; pre spray (baseline)) was 40.52.

Reference: patent US20250351832A1, “PHYTOCHEMICALS AS BIOPESTICIDES AND BIOSTIMULANTS” (KAY BEE BIO ORGANICS PVT. LTD., priority 2024, published 2025)
